# Test results from US9040501B2, “Compositions and methods for treating cancer” (Eisai Inc., priority 2009, dated 2015).
# Like-named read-outs stand apart in the source and are kept apart here.
# How the values were obtained:
# cytidine deaminase (CDA) [1] = biological target: T1, cytidine deaminase (CDA) (Homo sapiens (Human), UniProt P32320); test: Effect of ER-876437 on the half-life of decitabine in the presence of CDA in Tris-HCl buffer at 37° C.; assay type: biochemical
# Procedure: The solvent delivery system employed an HPLC quaternary pump, low pressure mixing. An autosampler having a variable loop, 0.1 to 100 μL range and temperature controlled thermostat was used. […] Degassed HPLC grade water and degassed HPLC grade acetonitrile were used as solvents for the mobile phases. […] [table]
# cytidine deaminase (CDA) [2] = biological target: T1, cytidine deaminase (CDA); test: Effect of ER-876437 on the half-life of cytarabine in the presence of CDA in Tris-HCl buffer at 37° C.
# [3] = Pharmacokinetics in mice after IV and PO administrations; assay type: in vivo, male BALB-c mice; conditions: for concentration at 0.167 hr / concentration at 0.5 hr / concentration at 1 hr / concentration at 2 hr / concentration at 4 hr / concentration at 6 hr / concentration at 8 hr / concentration at 24 hr: read-out: Plasma concentrations
# Procedure: […]. All doses were prepared in phosphate buffered saline (PBS) and were administered at a volume of 5 mL/kg. Five mice per group were used in these studies. Blood samples were taken serially from the tail vein of each mouse at predetermined timepoints. Blood samples from all mice in each group were pooled together prior to processing for plasma. The pooled blood samples were spun down within 30-60 minutes after withdrawal and the plasma was harvested and frozen for assay. After preparation and extraction the samples were assayed by LC/MS/MS.
# [4] = Stability in simulated gastric fluid at 37° C. (HPLC); assay type: physicochemical
# Excerpt: […]. See Kararli, T. T. Comparison of the GI anatomy, physiology, and biochemistry of humans and commonly used laboratory animals. BioPharm & DrugDispos. 16:351-380, 1995, which is hereby wholly incorporated by reference. The gastric pH in fasted monkeys has been reported to have a similar range of 1-3. See Kondo, H. et al. Characteristics of the gastric pH profiles of unfed and fed cynomolgus monkeys as pharmaceutical product development subjects. BioPharm & DrugDispos. 24:45-51, 2003, which is hereby wholly incorporated by reference.
# Materials: Simulated gastric fluid (SGF) was prepared by mixing the following into 100 mL of HPLC grade (or purified) water: 200 mg of sodium chloride and 1.87 mL of a 37.52% HCl stock solution.
# The HPLC analyses were conducted using a Waters UPLC solvent delivery system with Corona CAD detection. The HPLC Column (Waters Atlantis HHS T3 2.1×100 mm, 1.8 um) was maintained at 40° C. and preequilibrated with a solution containing 98% water and 2% acetonitrile. The temperature controlled auto-sampler was maintained at 37° C. The flow rate for the Water/MeCN mobile phase was 0.65 mL/min, with a gradient following sample injection (5 μL) as follows: […]
# The Water/MeCN mobile phase was applied to the column with the above described flow rate and gradient and the HPLC chromatograms were collected. After 3.5 minutes, the column was reequilibrated with 98% water/2% MeCN for 1.5 minutes.
# [5] = male, BALB-c, mouse, plasma, 10 mg/kg IV
# [6] = male, BALB-c, mouse, plasma, 10 mg/kg PO
# [7] = ER-876437 1.0 mg/kg/Veh, on autopsy
# Procedure for murine lymphoma L1210: Preparation of L1210 Cells: L1210 ascitic cells were prepared by passaging them in mice at least three times as follows. Each CD2F1 female mouse was intraperitoneally (IP) injected with about 10^5 L1210 ascitic cells. After one week, the mouse was sacrificed (asphyxiation via CO2). The mouse was placed on its back, its belly surface was cleaned with alcohol wipes, and a small incision was made into the peritoneal cavity. […] Diluted ascites (diluted 1:10 again) were counted on a hematocytometer and the number of cells per mL was calculated. About 10^5 L1210 cells were used for a subsequent passage for another mouse passage. Or, a stock of L1210 ascites in BSA solution was diluted to 1×10^4 cells/0.1 ml for use in the study mice.
# The mice were prepared with intravenous (IV) injection of L1210 ascites (prepared as described above) one day prior to commencing the dosing. […] The total IV injection for all mice took about 50 minutes.
# Decitabine was prepared fresh twice a day, just prior to dosing. All solutions were stored on ice while dosing. Mice were dosed (intraperitoneally (IP) or per os (orally, PO)) twice a day (8 hours apart) for 4 consecutive days.
# Dead mice were autopsied and observed for the presence of tumors in organs.
# Preparation of study mice with IV injection of L1210 ascites took about 60 minutes. […] All solutions were stored on ice while dosing. Mice were dosed (IP or PO) twice a day (7 or 8 hours apart) for 4 consecutive days.
# T1 sequence (P32320 whole entry): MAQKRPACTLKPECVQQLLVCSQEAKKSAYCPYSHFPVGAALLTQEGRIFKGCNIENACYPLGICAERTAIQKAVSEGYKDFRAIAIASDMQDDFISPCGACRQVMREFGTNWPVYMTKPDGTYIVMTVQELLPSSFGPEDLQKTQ
structure (smiles),measurement,setting,value
"O=C1NCC=CCN1[C@@H]1O[C@H](CO)[C@@H](O)C1(F)F [ER-876437, 1-((2R,4R,5R)-3,3-difluoro-4-hydroxy-5-(hydroxymethyl)tetrahydrofuran-2-yl)-3,4-dihydro-1H-1,3-diazepin-2(7H)-one]",inhibition of the effect of CDA on T1/2 of decitabine,cytidine deaminase (CDA) [1]; Tris-HCl buffer at 37° C.,nearly completely inhibited
same,levels of ER-876437,cytidine deaminase (CDA) [1]; after 12 hours exposure to CDA with decitabine,not affected
same,cytarabine remaining,"cytidine deaminase (CDA) [2]; CDA plus ER-876437 in the incubation mixture, after 52 h",greater than 95%
same,inhibition of the effect of CDA on T1/2 of cytarabine,cytidine deaminase (CDA) [2]; Tris-HCl buffer at 37° C.,nearly completely inhibited
same,levels of ER-876437,cytidine deaminase (CDA) [2]; after 52 hours of exposure to CDA with cytarabine,not affected
same,t1/2 after PO administration relative to IV administration,[3]; 10 mg/kg,roughly 2.5 fold
same,AUC0-∞,[3]; 10 mg/kg IV,13071 ng·h/mL
same,AUC0-∞/D,[3]; 10 mg/kg IV,1307 ng · hr/mL/D
same,AUCExtrap,[3]; 10 mg/kg IV,1.4%
same,CL,[3]; 10 mg/kg IV,12.8 mL/min/kg
same,dose-normalized exposures (AUC0-∞),[3]; 10 mg/kg IV,1310 ng·h/mL per mg/kg
same,t1/2,[3]; 10 mg/kg IV,6.1 h
same,AUC0-∞,[3]; 10 mg/kg PO,9499 ng·h/mL
same,AUC0-∞/D,[3]; 10 mg/kg PO,950 ng · hr/mL/D
same,AUC(0-t),[3]; 10 mg/kg PO,8579 ng·h/mL
same,AUCExtrap,[3]; 10 mg/kg PO,9.7%
same,t1/2,[3]; 10 mg/kg PO,16.3 h
same,AUC(0-inf),[3]; [5],13100 ng·h/mL
same,clearance,[3]; [5],12.8 mL/min/kg
same,half-life,[3]; [5],6.1 h
same,concentration at 0.167 hr,[3]; [5],11800 ng/mL
same,concentration at 0.5 hr,[3]; [5],7690 ng/mL
same,concentration at 1 hr,[3]; [5],3470 ng/mL
same,concentration at 2 hr,[3]; [5],1450 ng/mL
same,concentration at 4 hr,[3]; [5],214 ng/mL
same,concentration at 6 hr,[3]; [5],184 ng/mL
same,concentration at 8 hr,[3]; [5],64 ng/mL
same,concentration at 24 hr,[3]; [5],20 ng/mL
same,AUC(0-t),"[3]; male, BALB-c, mouse, plasma, 10 mg/kg IV, read-out: AUC0-t",12900 ng·h/mL
same,Vd,"[3]; male, BALB-c, mouse, plasma, 10 mg/kg IV, read-out: Vss",1.64 L/kg
same,AUC(0-inf),[3]; [6],9500 ng·h/mL
same,Cmax,[3]; [6],8600 ng/mL
same,half-life,[3]; [6],16.3 h
same,bioavailability,"[3]; male, BALB-c, mouse, plasma, 10 mg/kg PO vs IV, calculated based on AUC0-t, read-out: F (bioavailability)",66.5%
same,concentration at 0.167 hr,[3]; [6],8600 ng/mL
same,concentration at 0.5 hr,[3]; [6],3720 ng/mL
same,concentration at 1 hr,[3]; [6],4180 ng/mL
same,concentration at 2 hr,[3]; [6],1140 ng/mL
same,concentration at 4 hr,[3]; [6],146 ng/mL
same,concentration at 6 hr,[3]; [6],36 ng/mL
same,concentration at 8 hr,[3]; [6],103 ng/mL
same,concentration at 24 hr,[3]; [6],39 ng/mL
same,AUC(0-t),"[3]; male, BALB-c, mouse, plasma, 10 mg/kg PO, read-out: AUC0-t",8580 ng·h/mL
same,Mean Liver wts (g) ± SD,murine lymphoma L1210; [7],2.04 ± 0.15 g
same,Mean Spleen wts (g) ± SD,murine lymphoma L1210; [7],0.32 ± 0.02 g
same,Mean Survival (days) ± SD,"murine lymphoma L1210; ER-876437 1.0 mg/kg/Veh, twice a day (7 hours apart), 4 days",8.4 ± 0.55 days
same,% ILS (Increased Life Span),"murine lymphoma L1210; ER-876437 1.0 mg/kg/Veh, vs vehicle group",5.00%
same,minimally effective dose,"murine lymphoma L1210; with 0.1 mg/kg decitabine PO, L1210 survival model",0.1 mg/kg
same,% ER-876437 (peak retention time: 2.90 min),"[4]; SGF at 37° C., analysis time 0:00:30",85.88%
same,% ER-876437 (peak retention time: 2.90 min),"[4]; SGF at 37° C., analysis time 0:06:08",85.72%
same,% ER-876437 (peak retention time: 2.90 min),"[4]; SGF at 37° C., analysis time 0:11:45",86.46%
same,% ER-876437 (peak retention time: 2.90 min),"[4]; SGF at 37° C., analysis time 0:17:24",86.38%
same,% ER-876437 (peak retention time: 2.90 min),"[4]; SGF at 37° C., analysis time 0:23:02",83.22%
same,% ER-876437 (peak retention time: 2.90 min),"[4]; SGF at 37° C., analysis time 0:28:39",83.48%
same,% ER-876437 (peak retention time: 2.90 min),"[4]; SGF at 37° C., analysis time 0:34:17",83.80%
same,% ER-876437 (peak retention time: 2.90 min),"[4]; SGF at 37° C., analysis time 0:39:54",84.16%
same,% ER-876437 (peak retention time: 2.90 min),"[4]; SGF at 37° C., analysis time 0:45:32",82.62%
same,% ER-876437 (peak retention time: 2.90 min),"[4]; SGF at 37° C., analysis time 0:51:10",82.41%
same,% ER-876437 (peak retention time: 2.90 min),"[4]; SGF at 37° C., analysis time 0:56:47",82.45%
same,% ER-876437 (peak retention time: 2.90 min),"[4]; SGF at 37° C., analysis time 1:02:26",82.45%
same,% ER-876437 (peak retention time: 2.90 min),"[4]; SGF at 37° C., analysis time 1:08:04",82.55%
same,% ER-876437 (peak retention time: 2.90 min),"[4]; SGF at 37° C., analysis time 1:13:41",83.11%
same,% ER-876437 (peak retention time: 2.90 min),"[4]; SGF at 37° C., analysis time 1:19:19",81.82%
same,% ER-876437 (peak retention time: 2.90 min),"[4]; SGF at 37° C., analysis time 1:24:56",81.24%
same,% ER-876437 (peak retention time: 2.90 min),"[4]; SGF at 37° C., analysis time 1:30:33",79.20%
same,% ER-876437 (peak retention time: 2.90 min),"[4]; SGF at 37° C., analysis time 1:36:10",79.14%
same,% ER-876437 (peak retention time: 2.90 min),"[4]; SGF at 37° C., analysis time 1:41:47",78.47%
same,% ER-876437 (peak retention time: 2.90 min),"[4]; SGF at 37° C., analysis time 1:47:24",77.88%
same,% ER-876437 (peak retention time: 2.90 min),"[4]; SGF at 37° C., analysis time 1:53:02",78.29%
same,% ER-876437 (peak retention time: 2.90 min),"[4]; SGF at 37° C., analysis time 1:58:39",78.56%
same,% ER-876437 (peak retention time: 2.90 min),"[4]; SGF at 37° C., analysis time 2:04:16",77.21%
same,% ER-876437 (peak retention time: 2.90 min),"[4]; SGF at 37° C., analysis time 2:21:12",76.06%
same,% ER-876437 (peak retention time: 2.90 min),"[4]; SGF at 37° C., analysis time 2:26:50",77.34%
same,% ER-876437 (peak retention time: 2.90 min),"[4]; SGF at 37° C., analysis time 2:49:21",75.34%
same,% ER-876437 (peak retention time: 2.90 min),"[4]; SGF at 37° C., analysis time 3:17:30",72.37%
same,% ER-876437 (peak retention time: 2.90 min),"[4]; SGF at 37° C., analysis time 3:51:16",50.13%
same,% ER-876437 (peak retention time: 2.90 min),"[4]; SGF at 37° C., analysis time 4:19:26",51.88%
same,% ER-876437 (peak retention time: 2.90 min),"[4]; SGF at 37° C., analysis time 4:47:38",48.95%
same,% ER-876437 (peak retention time: 2.90 min),"[4]; SGF at 37° C., analysis time 5:21:25",45.19%
same,% ER-876437 (peak retention time: 2.90 min),"[4]; SGF at 37° C., analysis time 5:49:35",47.44%
same,% ER-876437 (peak retention time: 2.90 min),"[4]; SGF at 37° C., analysis time 6:17:45",44.94%
same,% ER-876437 (peak retention time: 2.90 min),"[4]; SGF at 37° C., analysis time 6:51:31",43.29%
same,% ER-876437 (peak retention time: 2.90 min),"[4]; SGF at 37° C., analysis time 7:19:40",41.85%
same,% ER-876437 (peak retention time: 2.90 min),"[4]; SGF at 37° C., analysis time 7:47:22",41.72%
same,% ER-876437 (peak retention time: 2.90 min),"[4]; SGF at 37° C., analysis time 8:21:11",36.89%
same,% ER-876437 (peak retention time: 2.90 min),"[4]; SGF at 37° C., analysis time 8:49:19",37.52%
same,% ER-876437 (peak retention time: 2.90 min),"[4]; SGF at 37° C., analysis time 9:17:30",36.34%
same,% ER-876437 (peak retention time: 2.90 min),"[4]; SGF at 37° C., analysis time 9:51:17",34.61%
same,% ER-876437 (peak retention time: 2.90 min),"[4]; SGF at 37° C., analysis time 10:19:29",31.94%
same,% ER-876437 (peak retention time: 2.90 min),"[4]; SGF at 37° C., analysis time 10:47:39",32.33%
same,% ER-876437 (peak retention time: 2.90 min),"[4]; SGF at 37° C., analysis time 11:15:53",29.85%
same,% ER-876437 (peak retention time: 2.90 min),"[4]; SGF at 37° C., analysis time 11:49:44",29.94%
same,% ER-876437 (peak retention time: 2.90 min),"[4]; SGF at 37° C., analysis time 12:17:54",27.99%
same,% ER-876437 (peak retention time: 2.90 min),"[4]; SGF at 37° C., analysis time 12:46:10",27.39%
same,% ER-876437 (peak retention time: 2.90 min),"[4]; SGF at 37° C., analysis time 13:20:01",26.14%
same,% ER-876437 (peak retention time: 2.90 min),"[4]; analysis time 0:00:00, initial sample in water",92.18%
same,half-life,[4]; simulated gastric fluid (pH 1.45) at 37° C.,4 to 6 h
